In US10688099B2, “Methods for modulating the amount of RNA transcripts” (PTC Therapeutics, Inc., priority 2013, dated 2020):

System: RNA isoforms in PNN 1-46 SMA type I patient-derived fibroblasts
Assay: RNA Abundance Modulation (RNA isoform abundance, iFPM, HiSeq RNA sequencing)
Assay type: cell-based, human
Conditions: 3 μM
Description: Cells from a cell line of interest are cultured in conditions sufficient to yield the number of cells capable of generating enough RNA for subsequent sequencing steps. Cells from the tested cell line are contacted with a compound described herein.
To culture said cells, they are seeded, at appropriate concentrations in a volume of media in a cell culture container and incubated for 4, 5, 6, 7, 8, 9, 10, or more hours. A concentrated solution of compound in a vehicle (e.g., DMSO) is then added in sufficient volume to result in the intended final concentration of the compound, for example 100 nM, 500 nM, 1 μM, 5 μM, 10 μM, 15 μM, 20 μM, or more. The cells may also be treated with vehicle alone, as a control. A number of replicates of each concentration or control may be made (e.g., 2 replicates). The cells are then incubated at a constant temperature appropriate for cell culture of the particular cell line (e.g., 37° C.) for 6, 12, 18, 24, 48, or more hours. After incubation, the growth medium is removed and the cells are washed with the appropriate buffer (e.g., PBS). Cells are then removed from adherence to the cell culture container by treatment with a solution containing trypsin, and the trypsin subsequently quenched with the appropriate volume of buffer (e.g., DMEM-FBS). The cells are then pelleted with gentle centrifugation (e.g., ≤90×g centrifugal force) and resuspended in a buffer to lyse the cells for extraction of RNA. The cell lysates may then be frozen (e.g., at −80° C.) or, alternately, may immediately be used in a procedure to purify the RNA (e.g. by use of the RNEASY PLUS® minikit). The RNA from cell lysates is eluted in the appropriate volume of buffer (e.g., RNEASE-FREE H2O®). The resulting purified RNA may then be sequenced (e.g., using RNASeq) or analyzed using a human exon array (e.g., by GENECHIP® human exon array) to determine changes in the RNA levels in those cells treated with compound compared to those cells treated only with DMSO. The purified RNA may also be quantified by other methods known in the art.
Using the RNA data obtained from sequencing, exon array, or other methods, a statistical analysis can reveal changes in the RNA levels of compound-treated compared with control. For example, t-test p-values may be calculated for the data obtained through sequencing and exon array methods in order to compare compound-treated cells to those treated with the DMSO control. […] Analysis of the sequencing and exon array data may then also yield predictions about the cause of the aberrant amount of an RNA transcript in the cells (e.g., perturbation of RNA splicing, RNA transcription, or RNA stability). These predictions may be further confirmed by methods known in the art. For example, RT-PCR and RT-qPCR may be used to confirm the change in amount of RNA transcripts for one or more particular transcripts of interest.
Following the methods described above in Example 1, PNN 1-46 SMA type I patient-derived fibroblasts were treated with 300 nM or 3 μM Compounds 774 and 808 in 0.5% DMSO.
700,000 cells were seeded in 10 mL of medium (DMEM plus 10% FBS) in a T-75 flask. Cells were allowed to attach for at least 4 hrs, after which 50 μL of a 200× compound solution (100% DMSO) was added to each well, and the plate was incubated at 37° C. for 24 hrs.
At the end of the incubation period, the supernatant was removed and the cells where washed with PBS. TrypLE (Invitrogen) express solution was added (e.g. 1.5 mL per one T75 flask). The flasks were incubated for 3 to 5 min at 37° C. The trypsin was then quenched, e.g., by adding 10 mL DMEM-FBS.
Next, the cells were pelleted using gentle centrifugation without exceeding 90×g centrifugal force. The supernatant was removed and the cell pellet was re-suspended in 600 μL RLT buffer (the RLT buffer was supplemented with beta-mercaptoethanol according to the RNeasy protocol manual) by pipetting up and down until the pellet was completely dissolved […]

## CCc1nc(C)cn2nc(-c3cc(=O)n4cc(C5CCN(C)CC5)cc(C)c4n3)cc12 [Compound 774]
TRAPPC12 AK094181
  L2FC (x + 1): 0.288
  L2abs (Cpd-DMSO): 2.20
  abs (Cpd-DMSO): 5 iFPM
  amp FC (x + 1): 1.22
  ave Cpd: 24 iFPM
TRAPPC12 AK098327
  FC (x + 1): 0.0066
  L2FC (x + 1): −7.244
  L2abs (Cpd-DMSO): 7.23
  abs (Cpd-DMSO): 151 iFPM
  amp FC (x + 1): 151.58
  ave Cpd: 0 iFPM
TRAPPC12 NM_016030
  FC (x + 1): 1.2575
  L2FC (x + 1): 0.331
  L2abs (Cpd-DMSO): 7.32
  abs (Cpd-DMSO): 160 iFPM
  amp FC (x + 1): 1.26
  ave Cpd: 781 iFPM
TRIM2 BC025417
  FC (x + 1): 0.7534
  L2FC (x + 1): −0.408
  L2abs (Cpd-DMSO): 0.61
  abs (Cpd-DMSO): 2 iFPM
  amp FC (x + 1): 1.33
  ave Cpd: 4 iFPM
TRIM2 NM_015271
  FC (x + 1): 1.1211
  L2FC (x + 1): 0.165
  L2abs (Cpd-DMSO): 7.65
  abs (Cpd-DMSO): 201 iFPM
  amp FC (x + 1): 1.12
  ave Cpd: 1858 iFPM
TRIM2 NM_001130067
  FC (x + 1): 0.0184
  L2FC (x + 1): −5.763
  L2abs (Cpd-DMSO): 5.74
  abs (Cpd-DMSO): 53 iFPM
  amp FC (x + 1): 54.29
  ave Cpd: 0 iFPM
TRIM65 NM_173547
  FC (x + 1): 1.6613
  L2FC (x + 1): 0.732
  L2abs (Cpd-DMSO): 7.49
  abs (Cpd-DMSO): 179 iFPM
  amp FC (x + 1): 1.66
  ave Cpd: 449 iFPM
TRIM65 NM_001256124
  FC (x + 1): 0.0055
  L2FC (x + 1): −7.514
  L2abs (Cpd-DMSO): 7.51
  abs (Cpd-DMSO): 182 iFPM
  amp FC (x + 1): 182.75
  ave Cpd: 0 iFPM
TSPAN2 GU971730
  FC (x + 1): 0.3567
  L2FC (x + 1): −1.487
  L2abs (Cpd-DMSO): 4.19
  abs (Cpd-DMSO): 18 iFPM
  amp FC (x + 1): 2.80
  ave Cpd: 9 iFPM
TSPAN2 NM_005725
  FC (x + 1): 0.3229
  L2FC (x + 1): −1.631
  L2abs (Cpd-DMSO): 8.17
  abs (Cpd-DMSO): 288 iFPM
  amp FC (x + 1): 3.10
  ave Cpd: 136 iFPM
U2SURP AK057679
  FC (x + 1): 1.1346
  L2FC (x + 1): 0.182
  L2abs (Cpd-DMSO): 4.73
  abs (Cpd-DMSO): 27 iFPM
  amp FC (x + 1): 1.13
  ave Cpd: 223 iFPM
U2SURP AK296440
  FC (x + 1): 0.9747
  L2FC (x + 1): −0.037
  L2abs (Cpd-DMSO): 2.77
  abs (Cpd-DMSO): 7 iFPM
  amp FC (x + 1): 1.03
  ave Cpd: 261 iFPM
U2SURP BC006474
  FC (x + 1): 0.9155
  L2FC (x + 1): −0.127
  L2abs (Cpd-DMSO): 6.85
  abs (Cpd-DMSO): 115 iFPM
